Test results from patent publication US20260207618A1, “PYRIMIDINE CARBOXAMIDE COMPOUNDS” (Acrivon Therapeutics, Inc., priority 2022, published 2026).

Columns and labels:
[1] = target: T1, recombinant human Wee1A kinase (Homo sapiens, UniProt P30291); experiment: LanthaScreen Europium (Eu) Kinase Binding Assay, Wee1A kinase (TR-FRET tracer displacement); conditions: 30 nM tracer 178, 5 nM Wee1A kinase, 60 minutes at room temperature
T1 construct: full length Wee1A kinase was expressed by baculovirus in insect cells; purchased Invitrogen PV3817; host or cells: insect cells (baculovirus)
Text: We used a LanthaScreen Europium (Eu) Kinase Binding Assay to determine the binding of provided compounds to Wee1A kinase. The assay utilizes an Alexa Fluor 647-labeled ATP competitive kinase tracer that binds to the ATP binding site of a GST-tagged Wee1A kinase, while a europium (Eu) labeled antibody binds to the GST tag. The proximity of fluorescently labeled kinase tracer and europium (Eu) donor fluorophore antibody leads to fluorescence resonance energy transfer (FRET) to the fluorescence label (acceptor) upon excitation of the Eu (donor). Displacement of tracer from the ATP-binding site by a test compound disturbs the proximity between both labels thus lowering the FRET.
This time resolved-FRET binding assay was performed in white 384-well low volume plates (Greiner, cat #784075), at room temperature in kinase buffer A (KBA; Invitrogen cat #PV3189), consisting of 50 mM HEPES-NaOH (pH 7.5), 0.01% Brij-35, 10 mM MgCl2, and 1 mM EGTA. 5 μl of compound (diluted in reaction buffer, to 1% DMSO) were added to various wells in the plate, followed by 5 μl each of recombinant human Wee1A kinase (full length Wee1A kinase was expressed by baculovirus in insect cells using a N-terminal GST tag (MW: 99.1 kDa) (Invitrogen cat #PV3817) and LanthaScreen Eu-anti-GST antibody (Invitrogen, cat #PV5594). After this, 5 μl of kinase tracer 178 (Invitrogen, cat #PV5593) was added to the plate and the plate was incubated for 60 minutes at room temperature. The final assay conditions in each well were: 30 nM tracer 178, 5 nM Wee1A kinase and 2 nM Eu-labeled antibody in total assay volume of 15 μl. An Envision 2104 (Perkin-Elmer) Plate Reader with the following time-resolve fluorescence setting was used for performing LanthaScreen kinase binding assay. • Excitation 320 nm (30 nm bandpass) • Kinase Tracer Emission 665 nm (10 nm bandpass) • LanthaScreen Eu-anti-Tag Antibody Emission 615 nm (10 nm bandpass) • Dichroic Mirror Instrument dependent • Delay Time 100 μs • Integration Time 200 μs
To calculate the emission ratio, the acceptor/tracer emission ([…]) was divided by the antibody/donor emission ([…]) and the average of duplicate measurement was used for calculations. Data plotting, analysis of binding, and curve fitting was done using Excel add-in XLfit version 5.5.0.5 (IDBS, Guildford, United Kingdom).

[2] = tested on: Cdk1 phosphorylated on tyrosine 15; experiment: High-content imaging of pCdk1 Y15 by immunofluorescence in ACHN cells; type: cell-based; conditions: Homo sapiens, high-content imaging (IF), 4 h, 7 to 5000 nM, read-out: CDK1 Tyr15 Phosphorylation EC50 (IC50)
Description: ACHN renal cell carcinoma cell line (ATCC) was cultured in Minimum Essential Medium Eagle supplemented with 10% fetal calf serum (Sigma), 1% Penicillin-Streptomycin and 10 mM HEPES buffer (HyClone). Cell cultures were kept in a humidified incubator at 37° C. and 5% CO2. Cells were routinely tested for Mycoplasma contamination.
High-content imaging of ACHN renal cell carcinoma cells was used for quantification of CDK1 phosphorylated on tyrosine 15 by immunofluorescence (“IF”). 20 000 cells per well were seeded in tissue culture treated 96 well plates and treated with compounds at concentrations ranging from 7 to 5000 nM for 4 h. Cells were fixated for 15 minutes in 4% paraformaldehyde solution, washed in PBS and permeabilized using 0.2% Triton X-100. Blocking was performed for 1 h at RT using Blocker FL Fluorescent Blocking Buffer (Thermo Scientific), thereafter cells were incubated with primary antibody (rabbit anti-pCDK1 Y^15, #4539, Cell Signaling Technology) at 4° C. ON. Alexa Fluor Plus 647 labelled goat anti-rabbit (A32733. Thermo Scientific) was used as secondary antibody. After washing in PBS, nuclei were stained with DAPI solution for 10 min at RT, protected from light. Cells were imaged using an ImageXpress Pico automated imaging system and CellReporter Xpress software (Molecular Devices). The percentage cells with nuclear positivity for pCdk1 Y^15 compared to DMSO control was determined for each well and drug dose response curves and EC50 values were calculated and visualized using GraphPad Prism.

T1 sequence (P30291 whole entry): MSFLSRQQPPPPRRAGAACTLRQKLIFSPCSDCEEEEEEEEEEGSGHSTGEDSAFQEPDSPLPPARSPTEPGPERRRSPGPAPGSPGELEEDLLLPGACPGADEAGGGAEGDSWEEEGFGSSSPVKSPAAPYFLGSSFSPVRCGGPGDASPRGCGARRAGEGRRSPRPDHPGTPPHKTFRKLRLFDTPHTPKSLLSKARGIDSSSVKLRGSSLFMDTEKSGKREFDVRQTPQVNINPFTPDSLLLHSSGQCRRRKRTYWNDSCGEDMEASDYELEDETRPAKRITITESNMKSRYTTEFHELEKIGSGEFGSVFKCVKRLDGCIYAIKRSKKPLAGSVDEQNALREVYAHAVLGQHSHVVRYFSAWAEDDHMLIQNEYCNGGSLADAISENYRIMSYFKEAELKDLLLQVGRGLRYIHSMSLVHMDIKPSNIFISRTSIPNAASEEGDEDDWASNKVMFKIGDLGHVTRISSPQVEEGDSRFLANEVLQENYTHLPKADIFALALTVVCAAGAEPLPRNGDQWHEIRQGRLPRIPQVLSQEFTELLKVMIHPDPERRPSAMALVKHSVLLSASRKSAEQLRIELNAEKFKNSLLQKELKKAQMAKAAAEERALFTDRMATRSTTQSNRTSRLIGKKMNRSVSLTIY

| IC50 [1] | EC50 [2] | SMILES |
| --- | --- | --- |
| ≤ 10 nM | 100 to 500 nM | COc1nc(Nc2ccc(C3CCN(C)CC3)c(C)c2)ncc1C(=O)Nc1c(Br)cccc1C#N [Compound 134, N-(2-bromo-6-cyanophenyl)-4-methoxy-2-((3-methyl-4-(1-methylpiperidin-4-yl)phenyl)amino)pyrimidine-5-carboxamide] |
| ≤ 10 nM | 100 to 500 nM | COc1nc(Nc2ccc(C3CCN(C)CC3)c(C)c2)ncc1C(=O)Nc1c(F)cccc1Br [Compound 136, N-(2-bromo-6-fluorophenyl)-4-methoxy-2-((3-methyl-4-(1-methylpiperidin-4-yl)phenyl)amino)pyrimidine-5-carboxamide] |
| 10 to 100 nM | > 1000 nM | COc1nc(Nc2ccc(C3CCN(C)CC3)c(C)c2)ncc1C(=O)Nc1c(Cl)cccc1C#N [Compound 137, N-(2-chloro-6-cyanophenyl)-4-methoxy-2-((3-methyl-4-(1-methylpiperidin-4-yl)phenyl)amino)pyrimidine-5-carboxamide] |
| ≤ 10 nM | > 1000 nM | COc1nc(Nc2ccc(C3CCN(C)CC3)c(C)c2)ncc1C(=O)Nc1cc(O)ccc1Cl [Compound 138, N-(2-chloro-5-hydroxyphenyl)-4-methoxy-2-((3-methyl-4-(1-methylpiperidin-4-yl)phenyl)amino)pyrimidine-5-carboxamide] |
| ≤ 10 nM | ≤ 100 nM | COc1nc(Nc2ccc(C3CCN(C)CC3)c(C)c2)ncc1C(=O)Nc1c(C)ccc(O)c1C [Compound 142, N-(3-hydroxy-2,6-dimethylphenyl)-4-methoxy-2-((3-methyl-4-(1-methylpiperidin-4-yl)phenyl)amino)pyrimidine-5-carboxamide] |
| ≤ 10 nM | 100 to 500 nM | COc1nc(Nc2ccc(OCCN(C)C)c(C)c2)ncc1C(=O)Nc1c(Cl)cccc1Cl [Compound 143, N-(2,6-dichlorophenyl)-2-((4-(2-(dimethylamino)ethoxy)-3-methylphenyl)amino)-4-methoxypyrimidine-5-carboxamide] |
| ≤ 10 nM | > 1000 nM | COc1nc(Nc2ccc(OCCN3CCOCC3)c(C)c2)ncc1C(=O)Nc1c(Cl)cccc1Cl [Compound 144, N-(2,6-dichlorophenyl)-4-methoxy-2-((3-methyl-4-(2-morpholinoethoxy)phenyl)amino)pyrimidine-5-carboxamide] |
| ≤ 10 nM | 100 to 500 nM | COc1nc(Nc2ccc(OC3CCN(C)CC3)c(C)c2)ncc1C(=O)Nc1c(Cl)cccc1Cl [Compound 145, N-(2,6-dichlorophenyl)-4-methoxy-2-((3-methyl-4-((1-methylpiperidin-4-yl)oxy)phenyl)amino)pyrimidine-5-carboxamide] |
| ≤ 10 nM | ≤ 100 nM | COc1nc(Nc2ccc(O[C@@H]3CCN(C)C3)c(C)c2)ncc1C(=O)Nc1c(Cl)cccc1Cl [Compound 146, (R)—N-(2,6-dichlorophenyl)-4-methoxy-2-((3-methyl-4-((1-methylpyrrolidin-3-yl)oxy)phenyl)amino)pyrimidine-5-carboxamide] |
| ≤ 10 nM | > 1000 nM | COc1nc(Nc2ccc(OCCCN(C)C)c(C)c2)ncc1C(=O)Nc1c(Cl)cccc1Cl [Compound 147, N-(2,6-dichlorophenyl)-2-((4-(3-(dimethylamino)propoxy)-3-methylphenyl)amino)-4-methoxypyrimidine-5-carboxamide] |
| ≤ 10 nM | > 1000 nM | COc1nc(Nc2ccc(OCCCN3CCOCC3)c(C)c2)ncc1C(=O)Nc1c(Cl)cccc1Cl [Compound 148, N-(2,6-dichlorophenyl)-4-methoxy-2-((3-methyl-4-(3-morpholinopropoxy)phenyl)amino)pyrimidine-5-carboxamide] |
| ≤ 10 nM | 100 to 500 nM | COc1nc(Nc2ccc(OCCN(C)C)c(C)c2)ncc1C(=O)Nc1c(Cl)ccc(O)c1C [Compound 149, N-(6-chloro-3-hydroxy-2-methylphenyl)-2-((4-(2-(dimethylamino)ethoxy)-3-methylphenyl)amino)-4-methoxypyrimidine-5-carboxamide] |
| ≤ 10 nM | > 1000 nM | COc1nc(Nc2ccc(OCCCN3CCOCC3)c(C)c2)ncc1C(=O)Nc1c(Cl)ccc(O)c1C [Compound 150, N-(6-chloro-3-hydroxy-2-methylphenyl)-4-methoxy-2-((3-methyl-4-(3-morpholinopropoxy)phenyl)amino)pyrimidine-5-carboxamide] |
| ≤ 10 nM | 100 to 500 nM | COc1nc(Nc2ccc(OC3CCN(C)CC3)c(C)c2)ncc1C(=O)Nc1c(Cl)ccc(O)c1C [Compound 152, N-(6-chloro-3-hydroxy-2-methylphenyl)-4-methoxy-2-((3-methyl-4-((1-methylpiperidin-4-yl)oxy)phenyl)amino)pyrimidine-5-carboxamide] |
| ≤ 10 nM | ≤ 100 nM | COc1nc(Nc2ccc(O[C@@H]3CCN(C)C3)c(C)c2)ncc1C(=O)Nc1c(Cl)ccc(O)c1C [Compound 153, (R)—N-(6-chloro-3-hydroxy-2-methylphenyl)-4-methoxy-2-((3-methyl-4-((1-methylpyrrolidin-3-yl)oxy)phenyl)amino)pyrimidine-5-carboxamide] |
| 10 to 100 nM | 100 to 500 nM | COc1nc(Nc2ccc(C3CCN(C)CC3)c(C#N)c2)ncc1C(=O)Nc1c(Cl)ccc(O)c1C [Compound 157, N-(6-chloro-3-hydroxy-2-methylphenyl)-2-((3-cyano-4-(1-methylpiperidin-4-yl)phenyl)amino)-4-methoxypyrimidine-5-carboxamide] |
| ≤ 10 nM | 100 to 500 nM | COc1nc(Nc2ccc(N3CCN(C)CC3)c(C)c2)ncc1C(=O)Nc1c(Cl)cccc1Cl [Compound 161] |
| ≤ 10 nM | 100 to 500 nM | COc1nc(Nc2ccc(N3CCNCC3)c(C)c2)ncc1C(=O)Nc1c(Cl)cccc1Cl [Compound 162] |
| ≤ 10 nM | > 1000 nM | COc1nc(Nc2cnn(C[C@@H]3CCNC3)c2)ncc1C(=O)Nc1c(Cl)cccc1Cl [Compound 164] |
| 10 to 100 nM | > 1000 nM | COc1nc(Nc2cnn(C[C@H]3CCNC3)c2)ncc1C(=O)Nc1c(Cl)cccc1Cl [Compound 165] |
| ≤ 10 nM | 100 to 500 nM | COc1nc(Nc2ccc3c(cnn3C3CCN(C)CC3)c2)ncc1C(=O)Nc1c(Cl)cccc1Cl [Compound 166] |
| ≤ 10 nM | 100 to 500 nM | COc1nc(Nc2ccc(N3CCNCCC3=O)c(C)c2)ncc1C(=O)Nc1c(Cl)cccc1Cl [Compound 167] |
| ≤ 10 nM | 100 to 500 nM | C#Cc1cccc(Br)c1NC(=O)c1cnc(Nc2ccc(C3CCNCC3)c(C)c2)nc1OC [Compound 184, N-(2-bromo-6-ethynylphenyl)-4-methoxy-2-((3-methyl-4-(piperidin-4-yl)phenyl)amino)pyrimidine-5-carboxamide] |
| ≤ 10 nM | 100 to 500 nM | COc1nc(Nc2ccc(N3CCN(C)CCC3=O)cc2)ncc1C(=O)Nc1c(Cl)cccc1Cl [Compound 185, N-(2,6-dichlorophenyl)-4-methoxy-2-((4-(4-methyl-7-oxo-1,4-diazepan-1-yl)phenyl)amino)pyrimidine-5-carboxamide] |
| ≤ 10 nM | 100 to 500 nM | COc1nc(Nc2cnn([C@H]3CCCN(C)CC3)c2)ncc1C(=O)Nc1c(Cl)cccc1Cl [Compound 189, N-2,6-dichlorophenyl-2-{1-[(S)-1-methyl-4-azepanyl]-4-pyrazolylamino}-4-methoxy-5-pyrimidinecarboxamide] |
